# pIC50: −log10 of the molar value. Active and inactive are the calls of the source. How the calls were made is not given here.
# Legend:
# Assay in all cases: CXCR6 receptor antagonists, dose response, cell-based, beta-arrestin, DiscoveRx, APJ panel, uHTS hits (AID 624129)
# [1] = target: Apelin receptor (Homo sapiens) (UniProt P35414); conditions: CXCR6 beta-arrestin (DiscoveRx) antagonist cell assay, APJ
# [2] = target: Beta-galactosidase (Escherichia coli) (UniProt Q8VNN2); conditions: CXCR6 beta-arrestin (DiscoveRx) antagonist cell assay, b-galactosidase
# Beta-galactosidase (Escherichia coli), sequence (Q8VNN2 whole entry, looked up): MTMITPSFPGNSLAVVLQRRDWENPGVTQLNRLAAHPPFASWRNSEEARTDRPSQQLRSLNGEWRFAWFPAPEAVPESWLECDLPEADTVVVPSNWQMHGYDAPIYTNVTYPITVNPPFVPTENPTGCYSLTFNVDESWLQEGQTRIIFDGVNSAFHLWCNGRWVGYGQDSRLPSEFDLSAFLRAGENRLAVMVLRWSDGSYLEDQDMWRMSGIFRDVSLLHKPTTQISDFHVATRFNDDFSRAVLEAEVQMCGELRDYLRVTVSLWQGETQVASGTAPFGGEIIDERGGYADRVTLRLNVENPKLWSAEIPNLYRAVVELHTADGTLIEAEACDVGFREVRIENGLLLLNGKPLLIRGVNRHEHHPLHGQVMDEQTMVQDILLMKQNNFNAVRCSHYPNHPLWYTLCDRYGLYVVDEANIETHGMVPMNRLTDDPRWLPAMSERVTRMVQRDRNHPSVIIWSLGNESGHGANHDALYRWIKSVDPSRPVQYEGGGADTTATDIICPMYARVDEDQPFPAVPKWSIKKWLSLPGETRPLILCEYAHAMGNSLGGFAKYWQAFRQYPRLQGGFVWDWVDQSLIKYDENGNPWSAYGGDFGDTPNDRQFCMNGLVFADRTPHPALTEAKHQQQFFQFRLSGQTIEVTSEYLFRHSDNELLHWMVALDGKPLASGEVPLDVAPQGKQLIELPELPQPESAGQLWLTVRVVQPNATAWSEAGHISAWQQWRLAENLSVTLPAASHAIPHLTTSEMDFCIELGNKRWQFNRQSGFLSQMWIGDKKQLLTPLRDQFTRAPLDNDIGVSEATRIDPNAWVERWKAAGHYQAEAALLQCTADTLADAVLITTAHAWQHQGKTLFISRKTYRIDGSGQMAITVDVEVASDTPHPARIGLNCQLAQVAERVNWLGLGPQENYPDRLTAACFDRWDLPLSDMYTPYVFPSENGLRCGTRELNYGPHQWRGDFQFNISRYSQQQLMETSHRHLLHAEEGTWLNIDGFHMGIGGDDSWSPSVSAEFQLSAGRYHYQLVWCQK
# [3] = target: C-X-C chemokine receptor type 6 (Homo sapiens) (UniProt O00574); conditions: CXCR6 beta-arrestin (DiscoveRx) antagonist cell assay; for inhibition: CXCR6, run 1, dose range 2, at 80 µM (top of the series)
# C-X-C chemokine receptor type 6 (Homo sapiens), sequence (O00574 whole entry, looked up): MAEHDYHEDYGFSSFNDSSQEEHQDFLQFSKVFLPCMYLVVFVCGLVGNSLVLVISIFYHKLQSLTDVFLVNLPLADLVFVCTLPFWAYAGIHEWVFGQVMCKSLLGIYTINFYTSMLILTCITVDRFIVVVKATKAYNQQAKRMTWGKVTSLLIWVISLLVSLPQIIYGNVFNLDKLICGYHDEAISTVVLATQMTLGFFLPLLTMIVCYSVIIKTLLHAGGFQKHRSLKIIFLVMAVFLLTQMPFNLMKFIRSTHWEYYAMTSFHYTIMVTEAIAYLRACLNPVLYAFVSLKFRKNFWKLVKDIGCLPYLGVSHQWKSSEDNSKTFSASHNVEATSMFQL
# [4] = target: C-C chemokine receptor type 6 (Homo sapiens) (UniProt P51684); conditions: CXCR6 beta-arrestin (DiscoveRx) antagonist cell assay
# [5] = dose range 1, mean IC50 across replicates
# [6] = CXCR6, dose range 1, mean IC50 across replicates
# [7] = CCR6, dose range 1, mean IC50 across replicates
SMILES,pIC50 ([1]; dose range 1),"pIC50 [1, 5]","pIC50 ([1]; run 2, dose range 1)","pIC50 ([1]; run 3, dose range 1)",IC50 ([2]; dose range 1),"pIC50 [2, 5]","pIC50 [3, 6]","pIC50 ([3]; CXCR6, run 1, dose range 2)","pIC50 ([3]; CXCR6, run 2, dose range 1)","pIC50 ([3]; CXCR6, run 2, dose range 2)","pIC50 ([4]; CCR6, dose range 1)","pIC50 [4, 7]","pIC50 ([4]; CCR6, run 2, dose range 1)","IC50 ([3]; CXCR6, dose range 1)",inhibition [3] [%],"pIC50 ([3]; CXCR6, dose range 1)",pIC50 ([2]; dose range 1)
O=C(Nc1nnc(SCc2ccc(F)cc2)s1)c1ccccn1,5.51,5.44,5.41,5.42,> 80 µM (inactive),< 4.10,5.39,5.26,5.46,5.49,5.37,5.34,5.32,,,,
COC(CNC(=O)c1cc(C(=O)c2c(-c3c(Cl)cccc3Cl)noc2C)c[nH]1)OC,5.28,5.03,4.97,4.92,> 80 µM (inactive),< 4.10,4.80,,4.73,,4.77,4.62,4.50,inactive,80.7,,
Cc1[nH][nH]c(=O)c1C(c1c(C)[nH][nH]c1=O)c1cn(Cc2ccc(F)cc2)c2ccccc12,4.46,4.48,4.48,4.50,> 80 µM (inactive),< 4.10,4.55,,4.56,,4.64,4.67,4.69,inactive,97.7,,
CCCOc1cccc(-c2cc(C(=O)N/N=C/c3ccccn3)c3ccccc3n2)c1,5.26,5.13,5.03,< 4.10,> 80 µM (inactive),< 4.10,5.06,5.37,4.84,5.17,5.57,5.44,5.33,,,5.04,
CCOC(=O)c1c(C)oc2c1c(C=NCc1ccccn1)c(O)c1ccccc12,4.91,4.91,< 4.10,< 4.10,> 80 µM (inactive),< 4.10,5.45,5.81,5.17,5.72,5.15,5.25,5.37,,,5.38,
CNc1ccc2oc(C[C@H]3O[C@@]4(CC[C@H]3C)O[C@H]([C@H](C)C(=O)c3ccc[nH]3)[C@H](C)C[C@H]4C)nc2c1C(=O)O,4.96,4.93,4.91,< 4.10,> 80 µM (inactive),< 4.10,5.07,5.19,5.15,4.82,5.21,5.21,5.21,,,5.23,
COc1cc(/C=C/c2ccc3cccc(O)c3n2)ccc1O,4.82,4.72,4.68,4.67,> 80 µM (inactive),< 4.10,4.84,,4.88,,4.89,4.89,4.89,inactive,131,,
O=C(Nc1cccc(C(F)(F)F)c1)Oc1ccc(Cl)c2cccnc12,6.46,6.39,< 4.10,6.33,> 80 µM (inactive),< 4.10,6.15,,6.28,,6.31,6.27,6.23,,53.2,6.06,
O=C1C=CC(=O)N1c1cccc(-c2ccccc2)c1,,4.64,4.64,< 4.10,> 80 µM (inactive),< 4.10,5.02,,< 4.10,,4.33,4.33,< 4.10,,21.2,5.01,
CCOc1ccc(N(CC(=O)N/N=C/c2ccccn2)S(=O)(=O)c2ccc(Cl)cc2)cc1,4.84,4.85,< 4.10,4.86,> 80 µM (inactive),< 4.10,4.57,4.98,4.21,4.92,4.94,4.90,4.86,inactive,,,
C=C1C(=O)OC2C1CCC(C)=C1C(=O)C3OC3(C)C12 (configuration not stated),4.96,4.96,4.95,4.97,> 80 µM (inactive),< 4.10,4.99,5.00,5.01,5.05,5.19,5.16,5.14,,,4.90,
CC(C)(C)c1ccc(CN2N=Nc3ccccc3S2(=O)=O)cc1,4.87,4.59,4.55,4.45,> 80 µM (inactive),< 4.10,4.79,,4.70,,4.95,4.76,4.64,inactive,142,,
COc1ccc(Nc2ccc([N+](=O)[O-])c3nonc23)c(OC)c1,,< 4.10,< 4.10,< 4.10,> 80 µM (inactive),< 4.10,< 4.10,,< 4.10,,,< 4.10,< 4.10,> 80 µM (inactive),4.14,,
COCc1cc(=O)[nH]c(Nc2nc3ccc(C)cc3o2)n1,5.38,5.12,< 4.10,4.96,> 80 µM (inactive),< 4.10,5.44,5.48,< 4.10,5.41,5.40,5.34,5.29,,,,
C=CCn1nc([N+](=O)[O-])nc1Sc1cccc2cccnc12,4.12,4.31,4.44,4.43,> 80 µM (inactive),< 4.10,4.22,,< 4.10,,4.41,4.45,4.50,inactive,82.2,,
CCn1c(Cl)c(C=O)s/c1=N\S(=O)(=O)c1ccccc1,5.16,5.22,5.26,5.25,> 80 µM (inactive),< 4.10,5.31,5.29,5.29,5.34,5.50,5.44,5.39,,,5.32,
CCOc1ccc2nc(NC(=O)c3ccccn3)sc2c1,4.93,4.71,4.46,4.93,> 80 µM (inactive),< 4.10,4.87,,4.90,,5.14,5.06,4.99,inactive,92.1,,
CCOc1cc(Br)c(Br)c(C=Nc2ccc(NC(C)=O)cc2)c1O,4.34,4.34,< 4.10,< 4.10,> 80 µM (inactive),< 4.10,4.70,5.27,< 4.10,4.85,,4.39,4.39,inactive,,,
CC(C)c1ccc(O)c(NC(=S)NC(=O)c2cccnc2)c1,5.06,5.01,4.98,4.98,inactive,4.28,4.83,4.89,4.68,5.06,4.97,5.00,5.03,inactive,,,
CC(=O)OCCCNc1cc(Sc2ccc(Cl)cc2)c2nonc2c1[N+](=O)[O-],5.29,5.33,5.37,5.34,,4.40,5.52,,5.54,,5.70,5.67,5.64,,145,5.49,4.40
Cc1ccc2c(c1)C1CN(C)CCC1N2C(=S)NC(=O)c1ccc(Br)cc1 (configuration not stated),4.89,4.92,4.96,4.91,> 80 µM (inactive),< 4.10,4.90,5.16,4.74,4.95,4.90,4.85,4.81,inactive,,,
COc1ccc(NC(=O)/C(Cl)=C(/Cl)S(=O)Cc2ccccc2)cn1 (configuration not stated),4.97,4.65,5.11,4.31,> 80 µM (inactive),< 4.10,5.18,5.17,5.21,5.15,5.26,5.30,5.33,,,5.21,

# Reference: PubChem BioAssay AID624129 (Sanford-Burnham Center for Chemical Genomics, 2012)
